Assay results: patent US20250289789A1, “REVERSIBLE LYSINE COVALENT MODIFIERS OF CDK2 AND USES THEREOF” (Terremoto Biosciences, Inc., priority 2023, published 2025)

Assays:
Type in all cases: cell-based
[1] = molecular target: T1, CDK2-NanoLuc fusion with CCNE1 in 293T or 293 cells (Homo sapiens, UniProt P24941); test: NanoBRET Target Engagement (TE) Intracellular Kinase Assay, CDK2/CCNE1; settings: NanoBRET TE intracellular kinase assay, 2-hour incubation, read-out: NanoBRET-CDK2/E1 IC50
T1 construct: host or cells: 293T (ATCC CRL-3216) or 293 (ATCC CRL-1573)

[2] = molecular target: T2, CDK1-NanoLuc fusion with CCNB1 in 293T or 293 cells (Homo sapiens, UniProt P06493); test: NanoBRET Target Engagement (TE) Intracellular Kinase Assay, CDK1/CCNB1; settings: NanoBRET TE intracellular kinase assay, 2-hour incubation, read-out: NanoBRET-CDK1/B1 IC50
T2 construct: host or cells: 293T (ATCC CRL-3216) or 293 (ATCC CRL-1573)
T2 sequence (P06493 whole entry, the tested form may be a part): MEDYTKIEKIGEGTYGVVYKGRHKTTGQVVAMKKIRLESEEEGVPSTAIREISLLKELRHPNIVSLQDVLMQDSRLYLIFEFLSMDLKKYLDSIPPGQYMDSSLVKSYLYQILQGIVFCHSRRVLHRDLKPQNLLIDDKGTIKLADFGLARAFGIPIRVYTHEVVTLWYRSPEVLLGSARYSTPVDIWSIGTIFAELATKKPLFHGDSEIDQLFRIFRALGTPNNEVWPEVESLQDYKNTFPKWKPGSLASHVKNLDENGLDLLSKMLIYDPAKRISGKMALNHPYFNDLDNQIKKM
T2 sequence (P14635 whole entry partner, the tested form may be a part): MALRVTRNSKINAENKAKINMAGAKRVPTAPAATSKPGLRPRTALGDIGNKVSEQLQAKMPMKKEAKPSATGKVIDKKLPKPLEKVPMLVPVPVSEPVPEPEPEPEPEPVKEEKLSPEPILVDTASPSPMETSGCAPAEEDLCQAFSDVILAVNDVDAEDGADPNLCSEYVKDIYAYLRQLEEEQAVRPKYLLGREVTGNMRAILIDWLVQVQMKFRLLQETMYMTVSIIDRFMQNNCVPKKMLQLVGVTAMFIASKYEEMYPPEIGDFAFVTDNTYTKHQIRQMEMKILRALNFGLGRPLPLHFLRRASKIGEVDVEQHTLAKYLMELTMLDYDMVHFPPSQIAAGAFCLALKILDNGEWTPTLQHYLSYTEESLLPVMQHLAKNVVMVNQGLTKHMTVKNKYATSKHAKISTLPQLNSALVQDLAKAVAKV
In short: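 IC50 derived by four-parameter logistic fit of DMSO-normalized acceptor/donor (610/450 nm) BRET ratio. Compound and Tracer K-10 were applied together for 2 h at 37° C to 293 or 293T cells transfected 24 h earlier with CDK1-NanoLuc fusion and cyclin B1.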

[3] = tested on: Phospho-Rb Ser807/811 in OVCAR3 cells; test: OVCAR3 Phospho-Rb Ser807/811 HTRF assay; settings: Homo sapiens, OVCAR-3, 1 h, OVCAR3 cells, Phospho-Rb Ser807/811 HTRF, 1 hour incubation; read-out: pRb-OVCAR3 IC50
Method: Cells were trypsinized and resuspended in 1 mM hydroxyurea (Sigma; H8627), 90% RPMI and 10% fetal bovine serum. […] Dose response curve normalized to DMSO control was plotted using four-parameter logistic model for IC50 calculation.

[4] = molecular target: T3, CDK4-NanoLuc fusion with CCND1 in 293T or 293 cells (Homo sapiens, UniProt P11802); test: NanoBRET Target Engagement (TE) Intracellular Kinase Assay, CDK4/CCND1; settings: NanoBRET TE intracellular kinase assay, 2-hour incubation, read-out: NanoBRET-CDK4/D1 IC50
T3 construct: host or cells: 293T (ATCC CRL-3216) or 293 (ATCC CRL-1573)
T3 sequence (P11802 whole entry, the tested form may be a part): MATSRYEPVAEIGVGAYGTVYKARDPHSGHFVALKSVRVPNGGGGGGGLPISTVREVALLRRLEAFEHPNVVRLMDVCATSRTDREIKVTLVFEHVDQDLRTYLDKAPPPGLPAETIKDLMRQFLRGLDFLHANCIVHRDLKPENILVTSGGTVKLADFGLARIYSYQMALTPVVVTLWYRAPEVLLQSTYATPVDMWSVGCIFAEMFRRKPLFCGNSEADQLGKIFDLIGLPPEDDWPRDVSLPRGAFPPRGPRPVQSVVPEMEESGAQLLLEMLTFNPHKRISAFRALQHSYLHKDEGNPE
T3 sequence (P24385 whole entry partner, the tested form may be a part): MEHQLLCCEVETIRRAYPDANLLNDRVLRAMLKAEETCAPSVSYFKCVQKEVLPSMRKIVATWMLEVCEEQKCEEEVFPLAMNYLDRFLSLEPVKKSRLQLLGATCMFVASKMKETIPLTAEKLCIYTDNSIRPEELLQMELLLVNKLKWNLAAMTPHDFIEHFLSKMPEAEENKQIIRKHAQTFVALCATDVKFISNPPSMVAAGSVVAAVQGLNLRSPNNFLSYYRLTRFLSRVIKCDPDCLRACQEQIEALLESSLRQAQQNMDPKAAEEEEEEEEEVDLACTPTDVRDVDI

IC50 [1] [nM]	IC50 [2] [nM]	IC50 [3] [nM]	IC50 [4] [nM]	Compound
43.8	213	761	5100	COc1cc(O)c(C=O)c([C@H]2C[C@@H]2C(=O)Nc2cc([C@H]3CC[C@@H](OC(=O)NC(C)C)C3)[nH]n2)c1 (single isomer, unassigned) [Compound 90]
56.8	155	375	> 3460	COc1cc(OC)c2c(c1C=O)C[C@H](C(=O)Nc1cc([C@H]3C[C@@H](OC(=O)NC(C)C)C3)[nH]n1)C2 [Compound 214]
4.69	36	149	> 10000	COc1cc(O)c(C=O)c(OCC(=O)Nc2cc([C@H]3C[C@@H](OC(=O)N4CCCC4)C3)[nH]n2)c1 [Compound 112, (1s,3s)-3-(3-(2-(2-formyl-3-hydroxy-5-methoxyphenoxy)acetamido)-1H-pyrazol-5-yl)cyclobutyl pyrrolidine-1-carboxylate]
6.73	35.3	475	202	CC(C)NC(=O)O[C@@H]1CC[C@H](c2cc(NC(=O)Cc3cnc(-c4cccc(O)c4C=O)s3)n[nH]2)C1 [Compound 67, (1R,3S)-3-(3-(2-(2-(2-formyl-3-hydroxyphenyl)thiazol-5-yl)acetamido)-1H-pyrazol-5-yl)cyclopentyl isopropylcarbamate; trifluoroacetic acid]
2.49	5.09	18.7	2600	CCCN(C)C(=O)O[C@@H]1CC[C@H](c2cc(NC(=O)COc3cc(OC)cc(O)c3C=O)n[nH]2)C1 [Compound 225]
17.8	491	2740	3160	CC(C)NC(=O)O[C@@H]1CC[C@H](c2cc(NC(=O)c3cc(CCc4cccc(O)c4C=O)nn3C)n[nH]2)C1 [Compound 30, (1R,3S)-3-(5-{5-[2-(2-formyl-3-hydroxyphenyl)ethyl]-2-methylpyrazole-3-amido}-2H-pyrazol-3-yl)cyclopentyl N-isopropylcarbamate]
7.87	62.9	274	1800	CC(C)NC(=O)O[C@@H]1CC[C@H](c2cc(NC(=O)[C@H]3C[C@H](Oc4cccc(O)c4C=O)C3)n[nH]2)C1 (single isomer, unassigned) [Compound 1]
4.75	6.23	83.3	2490	CC1(NC(=O)O[C@@H]2CC[C@H](c3cc(NC(=O)COc4cccc(O)c4C=O)n[nH]3)C2)CCC1 [Compound 83, (1R,3S)-3-{5-[2-(2-formyl-3-hydroxyphenoxy)acetamido]-2H-pyrazol-3-yl}cyclopentyl N-(1-methylcyclobutyl) carbamate; trifluoroacetic acid]
29.2	50.3	449	4700	CC(C)NC(=O)O[C@@H]1CC[C@H](c2cc(NC(=O)C3C[C@H]3c3cccc(O)c3C=O)n[nH]2)C1 (stereo in doubt) [Compound 9, (1R,3S)-3-{5-[(1R,2R)-2-(2-formyl-3-hydroxyphenyl)cyclopropaneamido]-2H-pyrazol-3-yl}cyclopentyl N-isopropylcarbamate]
2.64	28.9	93.6	> 10000	COc1cc(O)c(C=O)c(OCC(=O)Nc2cc([C@H]3CC[C@@H](OC(=O)N4CCCO4)C3)[nH]n2)c1 [Compound 224]
2.65	18.4	28.7	5100	C#CCNC(=O)O[C@@H]1CC[C@H](c2cc(NC(=O)COc3cc(OC)cc(O)c3C=O)n[nH]2)C1 [Compound 253]
10.1	337	2680	699	Cc1ncc(Oc2cccc(O)c2C=O)nc1C(=O)Nc1cc([C@H]2CC[C@@H](OC(=O)NC(C)C)C2)[nH]n1 [Compound 70, (1R,3S)-3-{5-[6-(2-formyl-3-hydroxyphenoxy)-3-methylpyrazine-2-amido]-2H-pyrazol-3-yl}cyclopentyl N-isopropylcarbamate]
